Earlier results, collected in patent US10278642B2, “Methods of assessing metabolic function” (Aurum Biosciences Limited, priority 2012, dated 2019).

Details: by 100 ml of the liquid at standard pressure and temperature

oxygen dissolved: 49 mL
SMILES: FC1(F)C(F)(F)C(F)(F)C2(F)C(F)(F)C(F)(F)C(F)(F)C(F)(F)C2(F)C1(F)F (stereo not shown) [perfluorodecalin]
